Read-outs that look alike come from different tables or passages of the source.
Columns and labels:
MOLT-4 [1] = assay: Muse Count & Viability Kit (flow cytometry); settings: for CC50 / Emax: Homo sapiens; for loss of potency in Muse Count & Viability Kit 72 h versus 72 h MTT: MOLT-4
Procedure: Cell viability, cell death pattern, cell cycle and detection of PI3K activation were evaluated, and each analysis was performed using specific protocols of the Guava Muse Cell Analyzer.
In total, 20 µL of the cell solution was added to 380 µL of the reagent in 1 mL Eppendorf tubes and incubated for 5 min at room temperature in the dark. Samples from three independent experiments carried out in duplicate were read on the cytometer, followed by statistical analysis of the histograms on Prism6 to determine the CC50.

[2] = PBMC viability assay (72 h MTT); type: cell-based, human; parameters: Emax at 72 h: dose or concentration left out as unconfirmed; settings: human; for viability at 72 h, 0.3 µM: 0.3 µM (printed 0.3M); for viability at 72 h, 3 µM: 3 µM (printed 3M)
Procedure: Donor blood was collected and EDTA (ethylenediamine tetraacetic acid) was added to the sterile laminar flow in a 1:20 ratio. In a 15 mL falcon tube, 4.5 mL of Ficoll gradient was added, and then 9 mL of blood was added over the gradient in a 1:2 ratio. The tubes were centrifuged for 40 min at a speed of 750× g with an acceleration of 2 and a brake of 0. The ring of mononuclear cells formed was collected and added to a new tube.
Tubes with PBMCs were centrifuged in an incomplete RPMI medium for 10 min at 580× g with an acceleration of 8 and a brake of 9. The supernatant was discarded, and the cells were resuspended in 1 mL of RPMI medium supplemented with 20% […]. PBMCs were added to 96-well plates at a concentration of 1 × 10^5 cells per well. […]
After incubation, each well received 20 µL of MTT (5 mg/mL), followed by incubation for 4 h in the CO2 oven and centrifugation for 12 min at 1200× g. The supernatant from each well was taken, and 100 µL of isopropyl alcohol was added to solubilize the formazan crystals. The absorbance of the plates was measured at 570 nm in the Flex Station equipment.

CCRF-CEM cell line = assay: Muse Cell Cycle Kit; type: cell-based, human; settings: 48 h
Procedure: The Guava Muse Luminex® Cell Cycle Kit (catalog n^o MCH100106, Luminex) contains the DNA marker propidium iodide (PI) and RNAse A to avoid nonspecific labelling.
After 48 h of incubation in an incubator at 37 °C with 5% CO2, 1 mL of the MOLT-4 cell solution and 500 µL of the CCRF-CEM cell solution, contained in the wells, were transferred to Eppendorf tubes and centrifuged at 300× g for 5 min. The volumes used ensured that the cell density remained within the recommended range (1 × 10^6 to 4 × 10^6 cells/mL) at the end of the 48 h incubation period.
The supernatant was discarded, and the pellet formed was resuspended in 1 mL of saline PBS, homogenised, and centrifuged at 300× g for 5 min. The formed pellet was resuspended in residual PBS by homogenization. To fix cellular events, 1 mL of ice-cold 70% alcohol was added dropwise into the tubes and vortexed at medium speed. The samples were incubated, before staining, for at least 3 h at −20 °C.
At the end of the incubation time at −20 °C, the samples were centrifuged at 300× g for 5 min, and then the supernatant was discarded and resuspended in 250 µL of PBS. The samples were again centrifuged at 300× g for 5 min and the supernatant discarded, which constituted the washing step. The pellet formed was resuspended in 200 µL of the Guava Muse Luminex® Cell Cycle, and the tubes were incubated for 30 min at room temperature, away from light.
After incubation, the samples were read in Guava Muse Luminex®, and the data with the histograms generated, which contain information on the percentage of the different phases of the cell cycle, were analysed in the statistical program Prism6. This methodology was performed in duplicate of three independent experiments.

CCRF-CEM = assay: MTT cell viability assay; type: cell-based, human; settings: for CC50 / Emax: Homo sapiens; for CC50: 95% confidence interval in brackets; for Emax: read-out: Emax (maximum effect at maximum concentration used)
Procedure: (§1) For the evaluation of cellular cytotoxicity in cancer cell lines, the compounds were tested at concentrations ranging from 0.00003 μM to 150 μM. Immortalized cancer cells were selected: PC-3 (PTEN-mutated prostate adenocarcinoma), MCF-7 (PI3KCA-mutated breast carcinoma), K562 (P53-mutated chronic myeloid leukemia), CCRF-CEM (acute lymphoblastic leukemia with mutation in PTEN) and MOLT-4 (acute lymphoblastic leukemia with mutation in PI3KR1/PTEN). Peripheral blood mononuclear cells (PBMCs) were used to determine the cytotoxic selectivity index (SI). All immortalized cells were cultured in RPMI 1640 medium with 10% (v/v) FBS, streptomycin + penicillin, at 37 °C in a humidified incubator containing 5% CO2.
(§2) Cell viability was assessed by the MTT assay. The lines selected for this study were plated according to their respective densities, which ranged from 3 × 10^4 to 4 × 10^4 cells per well. Subsequently, they were treated with test compounds at different concentrations (0.00003 μM to 150 μM), gedatolisib and GSK-1059615.
(§3) After incubation, the plates are centrifuged at 440× g for 10 min. Then, 110 μL of the supernatant was withdrawn and each well received 10μL of the MTT solution. The plate was again incubated in an oven at 37 °C and 5% CO2 for 3 to 4 h. At the end of the incubation time, 100 μL of SDS-HCL detergent was added to solubilize the formazan crystals. The plate was shaken on an automatic overnight shaker and then read at a wavelength of 595 nm on the Molecular Devices Spectramax M5 plate reader.

MOLT-4 [3] = assay: MTT cell viability assay; type: cell-based, human; settings: for CC50 / Emax: Homo sapiens; for CC50: 95% confidence interval in brackets; for Emax: read-out: Emax (maximum effect at maximum concentration used); for loss of cytotoxic potency at 48 h versus 72 h (MTT): MOLT-4
Procedure: as §1, §2, §3

[4] = test system: PC-3, MCF7, K562, CCRF-CEM and MOLT-4; assay: MTT single-concentration cytotoxicity screening; type: cell-based, human; settings: single concentration 30 μM; reduction in cell viability ≥ 50% selected for CC50
Procedure: In a first approach, the assay was validated with two standard drugs: gedatolisib and GSK-1059615.
After understanding the response profile of the selected cell lines to the treatment with gedatolisib and GSK-1059615, we investigated the cytotoxic activity of compounds 5a-f at a single concentration (30 μM). […] During the experiments, compounds 5a (LASSBio-2250), 5b (LASSBio-2251) and 9 (CAS-942789959) were insoluble and precipitated on the culture medium. Therefore, they were evaluated also at the screening concentration of 1 μM.
as §2, §3

[5] = peripheral blood mononuclear cells (PBMCs), PBMC, read-out: % cell viability
[6] = PBMC, read-out: % cell viability

Row | Compound | CC50 (MOLT-4 [1]; MOLT-4, 48 h) [µM] | Emax (MOLT-4 [1]; MOLT-4, 48 h) [%] | CC50 (MOLT-4 [1]; MOLT-4, 72 h) [µM] | Emax (MOLT-4 [1]; MOLT-4, 72 h) [%] | loss of potency in Muse Count & Viability Kit 72 h versus 72 h MTT (MOLT-4 [1]) [fold] | loss of cytotoxic potency at 48 h versus 72 h (MTT) (CCRF-CEM) | CC50 (CCRF-CEM; 48 h MTT) [µM] | Emax (CCRF-CEM; 48 h MTT) [%] | CC50 (CCRF-CEM; 72 h MTT) [µM] | Emax (CCRF-CEM; 72 h MTT) [%] | CC50 (MOLT-4 [3]; MOLT-4, 48 h MTT) [µM] | Emax (MOLT-4 [3]; MOLT-4, 48 h MTT) [%] | CC50 (MOLT-4 [3]; MOLT-4, 72 h MTT) [µM] | Emax (MOLT-4 [3]; MOLT-4, 72 h MTT) [%] | loss of cytotoxic potency at 48 h versus 72 h (MTT) (MOLT-4 [3]) | also measured
1 | CN(C)C1CCN(C(=O)c2ccc(NC(=O)Nc3ccc(-c4nc(N5CCOCC5)nc(N5CCOCC5)n4)cc3)cc2)CC1 [Gedatolisib, gedatolisib] | 1.65 | 82 | 1.15 | 86 | 100 | ~10 fold | 0.14 | 94 | 0.03 | 90 | 0.15 | 92 | 0.02 | 93 | ~10 fold | viability at 72 h, 0.0003 µM ([2]; peripheral blood mononuclear cells (PBMCs), PBMC, 0.0003 µM (printed 0.0003M), read-out: % cell viability): 89%; viability at 72 h, 0.003 µM ([2]; peripheral blood mononuclear cells (PBMCs), PBMC, 0.003 µM (printed 0.003M), read-out: % cell viability): 85%; viability at 72 h, 0.3 µM [2, 5]: 80%; viability at 72 h, 3 µM [2, 5]: 85%; viability at 72 h, 50 µM ([2]; peripheral blood mononuclear cells (PBMCs), PBMC, 50 µM (printed 50M), read-out: % cell viability): 67%; action on the cell cycle (CCRF-CEM cell line; both concentrations tested (0.6 µM and 6 µM)): cell cycle arrest in the G0/G1 phase
2 | c1ccc(N2CCN(c3nc(N4CCCNCC4)nc(N4CCOCC4)n3)CC2)cc1 [5f, 4-(4-(1,4-Diazepan-1-yl)-6-(4-phenylpiperazin-1-yl)-1,3,5-triazin-2-yl)morpholine] | 51 | 90 | 60.8 | 92 | ≤ 10 | less than 2 fold | 11.1 | 69 | 6.25 | 93 | 36.5 | 80 | 9.76 | 93 | less than 4 fold | cytotoxic effect on leukemia cell lines at single concentration [4]: cytotoxic effect; Emax at 72 h [2]: 26%; viability at 72 h, 0.03 µM ([2]; PBMC, 0.03 µM (printed 0.03M), read-out: % cell viability): 92%; viability at 72 h, 0.3 µM [2, 6]: 88%; viability at 72 h, 3 µM [2, 6]: 91%; viability at 72 h, 30 µM ([2]; PBMC, 30 µM (printed 30M), read-out: % cell viability): 75%; viability at 72 h, 100 µM ([2]; PBMC, 100 µM (printed 100M), read-out: % cell viability): 73%; action on the cell cycle (CCRF-CEM cell line; its CC50 value (50 µM)): cell cycle arrest in G0/G1

Reference: publication PMC9964390, “Design, Synthesis and Phenotypic Profiling of Simplified Gedatolisib Analogues” (Pharmaceuticals, 2023)
